Data from patent EP1602719B1, “Control of transglutaminase catalyzed protein modification by selective irreversible transglutaminase inhibitors” (N-Zyme BioTec GmbH, priority 2004, dated 2005).
Peptide text beside a SMILES is read from it. * marks the point of attachment. Cbz = O=C(OCc1ccccc1)*; Acryloyl = C=CC(=O)*

Biological target: T1, Meerschweinchenlebertransglutaminase (Cavia cutleri, UniProt P08587)
T1 sequence (P08587 1-690): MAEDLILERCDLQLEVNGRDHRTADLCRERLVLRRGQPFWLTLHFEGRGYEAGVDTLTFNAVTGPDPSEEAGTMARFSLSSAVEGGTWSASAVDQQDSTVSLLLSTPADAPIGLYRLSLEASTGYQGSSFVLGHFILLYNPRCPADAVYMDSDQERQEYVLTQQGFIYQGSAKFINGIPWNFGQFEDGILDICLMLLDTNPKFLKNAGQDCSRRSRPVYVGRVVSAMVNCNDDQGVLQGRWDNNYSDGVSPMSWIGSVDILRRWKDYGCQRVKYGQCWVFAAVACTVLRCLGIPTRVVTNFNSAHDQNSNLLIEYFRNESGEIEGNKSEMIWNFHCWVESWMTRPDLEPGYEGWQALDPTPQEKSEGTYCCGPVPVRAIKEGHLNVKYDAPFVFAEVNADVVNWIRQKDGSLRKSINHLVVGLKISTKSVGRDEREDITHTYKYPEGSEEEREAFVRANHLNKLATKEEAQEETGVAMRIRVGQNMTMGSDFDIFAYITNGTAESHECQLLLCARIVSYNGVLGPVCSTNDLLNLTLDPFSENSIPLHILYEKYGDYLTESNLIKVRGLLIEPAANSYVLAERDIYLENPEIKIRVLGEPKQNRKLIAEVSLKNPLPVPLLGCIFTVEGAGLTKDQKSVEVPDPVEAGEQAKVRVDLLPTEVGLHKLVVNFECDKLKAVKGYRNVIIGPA
Assay: Transglutaminase-catalysed labelling of recombinant hLeptin with Z-Gln-Gly-CAD-DNS, reaction stopped by inhibitor, RP-HPLC (Beispiel 7)
Type: biochemical, Meerschweinchen
Settings: inhibitor 0,5 mM
Description: Alle nachfolgend beschriebenen Experimente wurden nach dem gleichen Standardprotokoll durchgeführt. Dabei werden das jeweilige Zielprotein und das farbstofftragende amin- oder glutaminhaltige Substrat in einem geeigneten Puffer vorgelegt und für 5 Min. auf 37°C temperiert. Anschließend wird durch Zugabe von Transglutaminase die Reaktion gestartet. Nach variierenden Inkubationszeiten, durch die jeweils verschiedene Markierungsgrade erreicht werden, wird durch Zugabe eines Inhibitors die Transglutaminase vollständig und irreversibel inaktiviert (Reaktionsabbruch 1). In Kontrollexperimenten wird die Markierungsreaktion durch Abtrennung des ungebundenen, farbstofftragenden Substrates unterbrochen (Reaktionsabbruch 2). Die Abtrennung des ungebundenen Farbstoffes erfolgt unter Normaldruck über eine PD-10-Säule (Amersham Biosciences). Dieses allgemein einsetzbare Verfahren zur schnellen Abtrennung kleiner Moleküle von Makromolekülen wie Proteinen basiert auf dem Prinzip der Gelpermeationschromatographie und kann als das vorteilhafteste Verfahren zur Reaktionskontrolle nach dem Stand der Technik angesehen werden. Andere Verfahren, mit denen die weitere katalytische Markierungsreaktion abgebrochen werden könnte, sind weniger geeignet oder nicht allgemein einsetzbar (z. B. thermische, unspezifische chemische oder affinitätschromatographische Methoden). Die Gelpermeationschromatographie wurde jeweils so schnell wie technisch machbar durchgeführt. Dazu wird auf die vorkonditionierte PD-10-Säule 2,5 ml des Reaktionsvolumens aufgetragen und die Lösung vollständig in das Trennmaterial eingebracht. Anschließend wird das Protein mit 3,5 ml Puffer eluiert. Die niedermolekularen Substanzen verbleiben auf der Säule. Der Gesamtprozess benötigt eine Zeitspanne von mindestens 3 Minuten. Während dieser Zeit kann Transglutaminase weiter auf das Zielprotein einwirken. […]

Compound: C=CC(=O)NCCCC[C@H](NC(=O)OCc1ccccc1)C(=O)NCC(=O)O [Z-Lys(Acryloylamid)-Gly-OH, N^α-Benzyloxycarbonyl-L-lysinyl(ε-acryloyl)glycin] (Cbz-Lys(Acryloyl)-Gly-OH)
- Inaktivierung der Meerschweinchenlebertransglutaminase (added after 5 Min., GpTGase 0,25 U/ml, pH 8): vollständig
- weitere Labeling- und Quervernetzungsreaktionen (stopped reaction mixture kept at RT for 30 and 60 Min.): keine weitere Labeling- und Quervernetzungsreaktionen
- weitere enzymatische Reaktionen nach Lagerung (stored 10 days at -20°C, then one hour at RT): keine weiteren enzymatischen Reaktionen mehr
